Source: PubChem BioAssay AID2060606 (Molecular Pharmacology Branch, DTP, NCI, 2025)

Test system: 922993-354-T-J3-PDC complex spheroids, viability, % test/control
Experiment: Anticancer human tumor 922993-354-T-J3-PDC patient-derived endometrial carcinoma cell line growth inhibition [CLK]
Conditions: for IC50: curve of first compound; for viability, T/C: stronger effect = lower value
Procedure, shortened: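 Patient-derived tumor cells grown as complex spheroids with HUVEC endothelial cells and mesenchymal stem cells, treated with drug combinations. Concentrations descend in half-log steps from near clinical Cmax, or from 10 microM if Cmax unknown.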

[1] = second compound 0.0316 µM, first compound 0.0316 µM
[2] = second compound 0.0316 µM, first compound 0.1 µM
[3] = second compound 0.0316 µM, first compound 0.316 µM
[4] = second compound 0.0316 µM, first compound 1 µM
[5] = second compound 0.0316 µM, first compound 3.16 µM
[6] = second compound 0.0316 µM, first compound 10 µM
[7] = second compound 0.1 µM, first compound 0.0316 µM
[8] = second compound 0.1 µM, first compound 0.1 µM
[9] = second compound 0.1 µM, first compound 0.316 µM
[10] = second compound 0.1 µM, first compound 1 µM
[11] = second compound 0.1 µM, first compound 3.16 µM
[12] = second compound 0.1 µM, first compound 10 µM
[13] = second compound 0.316 µM, first compound 0.0316 µM
[14] = second compound 0.316 µM, first compound 0.1 µM
[15] = second compound 0.316 µM, first compound 0.316 µM
[16] = second compound 0.316 µM, first compound 1 µM
[17] = second compound 0.316 µM, first compound 3.16 µM
[18] = second compound 0.316 µM, first compound 10 µM
[19] = second compound 1 µM, first compound 0.0316 µM
[20] = second compound 1 µM, first compound 0.1 µM
[21] = second compound 1 µM, first compound 0.316 µM
[22] = second compound 1 µM, first compound 1 µM
[23] = second compound 1 µM, first compound 3.16 µM
[24] = second compound 1 µM, first compound 10 µM
[25] = second compound 3.16 µM, first compound 0.0316 µM
[26] = second compound 3.16 µM, first compound 0.1 µM
[27] = second compound 3.16 µM, first compound 0.316 µM
[28] = second compound 3.16 µM, first compound 1 µM
[29] = second compound 3.16 µM, first compound 3.16 µM
[30] = second compound 3.16 µM, first compound 10 µM
[31] = second compound 10 µM, first compound 0.0316 µM
[32] = second compound 10 µM, first compound 0.1 µM
[33] = second compound 10 µM, first compound 0.316 µM
[34] = second compound 10 µM, first compound 1 µM
[35] = second compound 10 µM, first compound 3.16 µM
[36] = second compound 10 µM, first compound 10 µM
[37] = second compound 0.0316 µM, first compound 0.00316 µM
[38] = second compound 0.0316 µM, first compound 0.01 µM
[39] = second compound 0.1 µM, first compound 0.00316 µM
[40] = second compound 0.1 µM, first compound 0.01 µM
[41] = second compound 0.316 µM, first compound 0.00316 µM
[42] = second compound 0.316 µM, first compound 0.01 µM
[43] = second compound 1 µM, first compound 0.00316 µM
[44] = second compound 1 µM, first compound 0.01 µM
[45] = second compound 3.16 µM, first compound 0.00316 µM
[46] = second compound 3.16 µM, first compound 0.01 µM
[47] = second compound 10 µM, first compound 0.00316 µM
[48] = second compound 10 µM, first compound 0.01 µM
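Note: spheroids exposed to the agents for 7 days before readout.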

## CC(CO)NC(=O)c1cc(-c2ccc(Cl)cc2)nn(-c2cnn(C)c2)c1=O (stereo not drawn) + CN1CCN(c2cc(C(=O)Nc3cc4cc(-c5cnn(C)c5)ccc4cn3)ccn2)CC1
Second compound 0.0316 µM
  IC50: > 10000 nM
Second compound 0.1 µM
  IC50: > 10000 nM
Second compound 0.316 µM
  IC50: < 31.6 nM
Second compound 1 µM
  IC50: < 31.6 nM
Second compound 3.16 µM
  IC50: < 31.6 nM
Second compound 10 µM
  IC50: < 31.6 nM
[1]
  viability, T/C: 119%
[2]
  viability, T/C: 98.2%
[3]
  viability, T/C: 93.1%
[4]
  viability, T/C: 98%
[5]
  viability, T/C: 84.8%
[6]
  viability, T/C: 96%
[7]
  viability, T/C: 95.2%
[8]
  viability, T/C: 77.1%
[9]
  viability, T/C: 80.8%
[10]
  viability, T/C: 69.5%
[11]
  viability, T/C: 77.2%
[12]
  viability, T/C: 72.1%
[13]
  viability, T/C: 47.6%
[14]
  viability, T/C: 49.6%
[15]
  viability, T/C: 40%
[16]
  viability, T/C: 33.6%
[17]
  viability, T/C: 35.3%
[18]
  viability, T/C: 35.9%
[19]
  viability, T/C: 0.14%
[20]
  viability, T/C: 0.16%
[21]
  viability, T/C: 0.16%
[22]
  viability, T/C: 0.12%
[23]
  viability, T/C: 0.98%
[24]
  viability, T/C: 1.3%
[25]
  viability, T/C: 0.15%
[26]
  viability, T/C: 0.63%
[27]
  viability, T/C: 0.87%
[28]
  viability, T/C: 1.29%
[29]
  viability, T/C: 1.41%
[30]
  viability, T/C: 0.14%
[31]
  viability, T/C: 0.2%
[32]
  viability, T/C: 0.21%
[33]
  viability, T/C: 2%
[34]
  viability, T/C: 0.26%
[35]
  viability, T/C: 0.7%
[36]
  viability, T/C: 1.23%

## CC(Nc1ccc2c(c1)OCCn1cc(N3C(=O)OCC3C(F)F)nc1-2)C(N)=O (stereo not drawn) + CN1CCN(c2cc(C(=O)Nc3cc4cc(-c5cnn(C)c5)ccc4cn3)ccn2)CC1
Second compound 0.0316 µM
  IC50: 2730 nM
Second compound 0.1 µM
  IC50: 1120 nM
Second compound 0.316 µM
  IC50: 59.6 nM
Second compound 1 µM
  IC50: < 31.6 nM
Second compound 3.16 µM
  IC50: < 31.6 nM
Second compound 10 µM
  IC50: < 31.6 nM
[1]
  viability, T/C: 110%
[2]
  viability, T/C: 105%
[3]
  viability, T/C: 84.8%
[4]
  viability, T/C: 67.8%
[5]
  viability, T/C: 48.7%
[6]
  viability, T/C: 25.6%
[7]
  viability, T/C: 109%
[8]
  viability, T/C: 97.6%
[9]
  viability, T/C: 91%
[10]
  viability, T/C: 50.3%
[11]
  viability, T/C: 34.7%
[12]
  viability, T/C: 27.2%
[13]
  viability, T/C: 49.6%
[14]
  viability, T/C: 55%
[15]
  viability, T/C: 28.7%
[16]
  viability, T/C: 23.4%
[17]
  viability, T/C: 16.8%
[18]
  viability, T/C: 6.83%
[19]
  viability, T/C: 0.15%
[20]
  viability, T/C: 0.13%
[21]
  viability, T/C: 1.42%
[22]
  viability, T/C: 0.08%
[23]
  viability, T/C: 0.07%
[24]
  viability, T/C: 1.09%
[25]
  viability, T/C: 0.09%
[26]
  viability, T/C: 0.57%
[27]
  viability, T/C: 0.75%
[28]
  viability, T/C: 0.83%
[29]
  viability, T/C: 1.91%
[30]
  viability, T/C: 1.61%
[31]
  viability, T/C: 0.09%
[32]
  viability, T/C: 0.13%
[33]
  viability, T/C: 1.44%
[34]
  viability, T/C: 0.18%
[35]
  viability, T/C: 1.19%
[36]
  viability, T/C: 1.25%

## CCN1CCN(Cc2ccc(Nc3ncc(F)c(-c4cc(F)c5nc(C)n(C(C)C)c5c4)n3)nc2)CC1 + CN1CCN(c2cc(C(=O)Nc3cc4cc(-c5cnn(C)c5)ccc4cn3)ccn2)CC1
Second compound 0.0316 µM
  IC50: > 1000 nM
Second compound 0.1 µM
  IC50: > 1000 nM
Second compound 0.316 µM
  IC50: < 3.16 nM
Second compound 1 µM
  IC50: < 3.16 nM
Second compound 3.16 µM
  IC50: < 3.16 nM
Second compound 10 µM
  IC50: < 3.16 nM
[37]
  viability, T/C: 106%
[38]
  viability, T/C: 110%
[1]
  viability, T/C: 87.4%
[2]
  viability, T/C: 83.3%
[3]
  viability, T/C: 58.9%
[4]
  viability, T/C: 57.3%
[39]
  viability, T/C: 88.1%
[40]
  viability, T/C: 91.8%
[7]
  viability, T/C: 75.8%
[8]
  viability, T/C: 66.4%
[9]
  viability, T/C: 58.8%
[10]
  viability, T/C: 60.5%
[41]
  viability, T/C: 46.5%
[42]
  viability, T/C: 37%
[13]
  viability, T/C: 34.4%
[14]
  viability, T/C: 37%
[15]
  viability, T/C: 36.4%
[16]
  viability, T/C: 38.6%
[43]
  viability, T/C: 0.13%
[44]
  viability, T/C: 0.79%
[19]
  viability, T/C: 0.77%
[20]
  viability, T/C: 0.13%
[21]
  viability, T/C: 1.01%
[22]
  viability, T/C: 0.64%
[45]
  viability, T/C: 0.1%
[46]
  viability, T/C: 1.24%
[25]
  viability, T/C: 0.11%
[26]
  viability, T/C: 0.13%
[27]
  viability, T/C: 0.16%
[28]
  viability, T/C: 0.84%
[47]
  viability, T/C: 0.13%
[48]
  viability, T/C: 0.16%
[31]
  viability, T/C: 1.7%
[32]
  viability, T/C: 0.15%
[33]
  viability, T/C: 2.3%
[34]
  viability, T/C: 2.5%

## COc1c(OCCCN2CCOCC2)ccc2c3n(c(=NC(=O)c4cnc(N)nc4)nc12)CCN3 + CN1CCN(c2cc(C(=O)Nc3cc4cc(-c5cnn(C)c5)ccc4cn3)ccn2)CC1
Second compound 0.0316 µM
  IC50: 148 nM
Second compound 0.1 µM
  IC50: 151 nM
Second compound 0.316 µM
  IC50: < 3.16 nM
Second compound 1 µM
  IC50: < 3.16 nM
Second compound 3.16 µM
  IC50: < 3.16 nM
Second compound 10 µM
  IC50: < 3.16 nM
[37]
  viability, T/C: 112%
[38]
  viability, T/C: 116%
[1]
  viability, T/C: 86.5%
[2]
  viability, T/C: 59.7%
[3]
  viability, T/C: 32.2%
[4]
  viability, T/C: 9.62%
[39]
  viability, T/C: 91.7%
[40]
  viability, T/C: 99.9%
[7]
  viability, T/C: 89.9%
[8]
  viability, T/C: 58.1%
[9]
  viability, T/C: 32.4%
[10]
  viability, T/C: 12.1%
[41]
  viability, T/C: 48.1%
[42]
  viability, T/C: 47.9%
[13]
  viability, T/C: 39.8%
[14]
  viability, T/C: 18.8%
[15]
  viability, T/C: 6.2%
[16]
  viability, T/C: 2.87%
[43]
  viability, T/C: 0.13%
[44]
  viability, T/C: 1.13%
[19]
  viability, T/C: 0.12%
[20]
  viability, T/C: 0.08%
[21]
  viability, T/C: 1.11%
[22]
  viability, T/C: 0.77%
[45]
  viability, T/C: 0.42%
[46]
  viability, T/C: 0.12%
[25]
  viability, T/C: 0.38%
[26]
  viability, T/C: 0.15%
[27]
  viability, T/C: 1.16%
[28]
  viability, T/C: 1.38%
[47]
  viability, T/C: 0.08%
[48]
  viability, T/C: 0.15%
[31]
  viability, T/C: 1.41%
[32]
  viability, T/C: 0.15%
[33]
  viability, T/C: 3.12%
[34]
  viability, T/C: 2.42%
